“And” between values parts separate entries of the source, which are not always exact repeats. Identical values can stand only once.
Tested on: CD2F1 mice, P1798 lymphosarcoma sc, tumor weight T/C
Assay: NCI In Vivo Anticancer Drug Screen. Data for tumor model P1798 Lymphosarcoma (subcutaneous) in CD2F1 (CDF1) mice
Details: endpoint: mean tumor weight, higher = larger tumour
Protocol: The antitumor activity of compounds was measured in mice bearing transplantable tumors. Survival or tumor size were measured and the results are expressed as the measurement made in the treated group (T) divided by the measurement made in the vehicle treated control group (C). The tumor model used in this assay is P1798 Lymphosarcoma (subcutaneous) in CD2F1 (CDF1) mice

[1] = dose: 5.0 mg/kg/injection, schedule: Q01DX010 (ip), vehicle: saline
[2] = dose: 10.0 mg/kg/injection, schedule: Q01DX010 (ip), vehicle: saline
[3] = dose: 40.0 mg/kg/injection, schedule: Q01DX010 (ip), vehicle: saline
[4] = dose: 200.0 mg/kg/injection, schedule: Q01DX010 (ip), vehicle: saline
[5] = dose: 0.25 mg/kg/injection, schedule: Q01DX010 (ip), vehicle: saline
[6] = dose: 0.5 mg/kg/injection, schedule: Q01DX010 (ip), vehicle: saline
[7] = dose: 25.0 mg/kg/injection, schedule: Q01DX010 (sc), vehicle: steriod suspending solution
[8] = dose: 50.0 mg/kg/injection, schedule: Q01DX010 (sc), vehicle: steriod suspending solution
[9] = dose: 100.0 mg/kg/injection, schedule: Q01DX010 (sc), vehicle: steriod suspending solution
[10] = dose: 50.0 mg/kg/injection, schedule: Q01DX010 (ip), vehicle: saline
[11] = dose: 100.0 mg/kg/injection, schedule: Q01DX010 (ip), vehicle: saline
[12] = dose: 400.0 mg/kg/injection, schedule: Q01DX010 (ip), vehicle: saline
[13] = dose: 12.5 mg/kg/injection, schedule: Q01DX010 (ip), vehicle: saline
[14] = dose: 25.0 mg/kg/injection, schedule: Q01DX010 (ip), vehicle: saline
[15] = dose: 18.0 mg/kg/injection, schedule: Q01DX010 (ip), vehicle: saline

For CCOC(=O)NP(=O)(N1CC1)N1CC1, the T/C [1] was 64 % of control and the T/C [2] was 55 % of control.
For O=c1[nH]c(=O)n(C2CC(O)C(CO)O2)cc1F (centres undefined), the T/C [1] was 73 % of control, the T/C [2] was 68 % of control and 84 % of control and the T/C (dose: 20.0 mg/kg/injection, schedule: Q01DX010 (ip), vehicle: saline) was 47 % of control and 55 % of control. For the same compound, the T/C [3] was 15 % of control and 28 % of control and the T/C (dose: 80.0 mg/kg/injection, schedule: Q01DX010 (ip), vehicle: saline) was 1 % of control.
In the case of NC(=O)NO, the T/C (dose: 60.0 mg/kg/injection, schedule: Q01DX010 (ip), vehicle: saline) is reported as 60 % of control, the T/C (dose: 90.0 mg/kg/injection, schedule: Q01DX010 (ip), vehicle: saline) is reported as 54 % of control and the T/C (dose: 135.0 mg/kg/injection, schedule: Q01DX010 (ip), vehicle: saline) is reported as 39 % of control. The T/C [4] was 12 % of control.
COCCOC was tested, and the T/C (dose: 300.0 mg/kg/injection, schedule: Q01DX010 (ip), vehicle: saline) was 100 % of control, the T/C (dose: 450.0 mg/kg/injection, schedule: Q01DX010 (ip), vehicle: saline) was 62 % of control and the T/C (dose: 675.0 mg/kg/injection, schedule: Q01DX010 (ip), vehicle: saline) was 60 % of control.
Nc1nc(N)c2nc(CNc3ccc(C(=O)NC(CCC(=O)O)C(=O)O)cc3)cnc2n1 (centres undefined) was tested, and the T/C (dose: 50.0 micrograms/kg/injection, schedule: Q01DX010 (ip), vehicle: other) was 110 % of control, the T/C (dose: 100.0 micrograms/kg/injection, schedule: Q01DX010 (ip), vehicle: other) was 100 % of control and the T/C (dose: 200.0 micrograms/kg/injection, schedule: Q01DX010 (ip), vehicle: other) was 79 % of control.
With N#Cc1cn(C2OC(CO)C(O)C2O)c2ncnc(N)c12 (centres undefined) the T/C (dose: 0.06 mg/kg/injection, schedule: Q01DX010 (ip), vehicle: saline) was 86 % of control, the T/C (dose: 0.12 mg/kg/injection, schedule: Q01DX010 (ip), vehicle: saline) was 61 % of control and the T/C [5] was 69 % of control and 76 % of control. For the same compound, the T/C [6] was 72 % of control, the T/C (dose: 1.0 mg/kg/injection, schedule: Q01DX010 (ip), vehicle: saline) was 68 % of control and the T/C (dose: 2.0 mg/kg/injection, schedule: Q01DX010 (ip), vehicle: saline) was 62 % of control.
For CC1CCC2C(C)C3C(CC4C5CC=C6CC(OC7OC(CO)C(O)C(OC8OC(CO)C(O)C(O)C8O)C7OC7OC(C)C(O)C(O)C7O)CCC6(C)C5CCC43C)N2C1 (centres undefined), the T/C [7] was 65 % of control, the T/C [8] was 44 % of control and the T/C [9] was 16 % of control. The T/C (dose: 200.0 mg/kg/injection, schedule: Q01DX010 (sc), vehicle: steriod suspending solution) was 9 % of control and 26 % of control and the T/C (dose: 400.0 mg/kg/injection, schedule: Q01DX010 (sc), vehicle: steriod suspending solution) was 30 % of control.
For O=C(NCCCCCCNC(=O)OCc1ccccc1)OCc1ccccc1, the T/C [10] was 102 % of control, the T/C [11] was 119 % of control and the T/C [4] was 94 % of control. The T/C [12] was 123 % of control.
With CC(=O)OCC(=O)[C@@]1(O)CC[C@H]2[C@@H]3C[C@H](C)C4=CC(=O)C=C[C@]4(C)[C@H]3[C@@H](O)C[C@@]21C the T/C [8] was 5 % of control.
In the case of COc1cc(-c2ccc(Nc3ccccc3C(=O)O)c(OC)c2)ccc1Nc1ccccc1C(=O)O, the T/C [13] is reported as 61 % of control, the T/C [14] is reported as 53 % of control and 57 % of control and the T/C [10] is reported as 12 % of control and 30 % of control.
CSCS(=O)C[C@H](CO)NC(=O)/C=C/c1c(C)[nH]c(=O)[nH]c1=O (some centres undefined) was tested, and the T/C (dose: 0.13 mg/kg/injection, schedule: Q01DX010 (ip), vehicle: saline) was 94 % of control, the T/C [5] was 99 % of control and the T/C [6] was 15 % of control.
For CC(=O)Nc1c(Cl)cc2c(c1Cl)Cc1cc([N+](=O)[O-])ccc1-2, the T/C (dose: 15.0 mg/kg/injection, schedule: Q01DX011 (ip), vehicle: carboxymethylcellulose (CMC)) was 85 % of control and the T/C (dose: 65.0 mg/kg/injection, schedule: Q01DX011 (ip), vehicle: carboxymethylcellulose (CMC)) was 108 % of control.
In the case of CC(=O)c1ccccc1C, the T/C [15] is reported as 44 % of control, the T/C (dose: 27.0 mg/kg/injection, schedule: Q01DX010 (ip), vehicle: saline) is reported as 42 % of control and the T/C [3] is reported as 42 % of control.
For O=c1ccc2ccccc2o1, the T/C (dose: 110.0 mg/kg/injection, schedule: Q01DX011 (ip), vehicle: carboxymethylcellulose (CMC)) was 69 % of control and the T/C (dose: 165.0 mg/kg/injection, schedule: Q01DX011 (ip), vehicle: carboxymethylcellulose (CMC)) was 54 % of control.
S=c1nc[nH]c2nc[nH]c12 was tested, and the T/C (dose: 10.0 mg/kg/injection, schedule: Q01DX010 (ip), vehicle: alkali diluted with saline) was 90 % of control and the T/C (dose: 80.0 mg/kg/injection, schedule: Q01DX010 (ip), vehicle: alkali diluted with saline) was 35 % of control.
NC(CCSCc1ccc(N(CCCl)CCCl)cc1)C(=O)O (centres undefined) was tested, and the T/C (dose: 4.5 mg/kg/injection, schedule: Q01DX010 (ip), vehicle: saline) was 108 % of control, the T/C (dose: 9.0 mg/kg/injection, schedule: Q01DX010 (ip), vehicle: saline) was 86 % of control and the T/C [15] was 98 % of control. For the same compound, the T/C (dose: 36.0 mg/kg/injection, schedule: Q01DX010 (ip), vehicle: saline) was 93 % of control.
For O=C1C=CC2(CCC23C=CC(=O)O3)O1 (centres undefined), the T/C (dose: 13.0 mg/kg/injection, schedule: Q01DX011 (ip), vehicle: saline) was 74 % of control, the T/C (dose: 20.0 mg/kg/injection, schedule: Q01DX011 (ip), vehicle: saline) was 106 % of control and the T/C (dose: 45.0 mg/kg/injection, schedule: Q01DX011 (ip), vehicle: saline) was 108 % of control and 86 % of control. For the same compound, the T/C (dose: 65.0 mg/kg/injection, schedule: Q01DX011 (ip), vehicle: saline) was 103 % of control and the T/C (dose: 100.0 mg/kg/injection, schedule: Q01DX011 (ip), vehicle: saline) was 89 % of control.
Cc1cn(C2OC(CO)C(O)C2O)c(=O)[nH]c1=O (centres undefined) was tested, and the T/C (dose: 62.5 mg/kg/injection, schedule: Q01DX010 (ip), vehicle: saline) was 97 % of control, the T/C [11] was 67 % of control and the T/C (dose: 125.0 mg/kg/injection, schedule: Q01DX010 (ip), vehicle: saline) was 96 % of control. For the same compound, the T/C [4] was 80 % of control, the T/C (dose: 250.0 mg/kg/injection, schedule: Q01DX010 (ip), vehicle: saline) was 72 % of control and the T/C [12] was 85 % of control. For the same compound, the T/C (dose: 500.0 mg/kg/injection, schedule: Q01DX010 (ip), vehicle: saline) was 69 % of control and the T/C (dose: 800.0 mg/kg/injection, schedule: Q01DX010 (ip), vehicle: saline) was 75 % of control.
CC(=O)OC(C)(C)/C=C/C(=O)[C@](C)(O)[C@H]1[C@H](O)C[C@@]2(C)[C@@H]3CC=C4[C@@H](C=C(O)C(=O)C4(C)C)[C@]3(C)C(=O)C[C@]12C was tested, and the T/C (dose: 0.15 mg/kg/injection, schedule: Q01DX009 (ip), vehicle: saline with Tween-80) was 100 % of control, the T/C (dose: 0.3 mg/kg/injection, schedule: Q01DX009 (ip), vehicle: saline with Tween-80) was 84 % of control and the T/C (dose: 0.4 mg/kg/injection, schedule: Q01DX011 (ip), vehicle: carboxymethylcellulose (CMC)) was 84 % of control. For the same compound, the T/C (dose: 0.6 mg/kg/injection, schedule: Q01DX009 (ip), vehicle: saline with Tween-80) was 92 % of control, the T/C (dose: 0.8 mg/kg/injection, schedule: Q01DX011 (ip), vehicle: carboxymethylcellulose (CMC)) was 95 % of control and the T/C (dose: 1.6 mg/kg/injection, schedule: Q01DX011 (ip), vehicle: carboxymethylcellulose (CMC)) was 115 % of control. The T/C (dose: 3.2 mg/kg/injection, schedule: Q01DX011 (ip), vehicle: carboxymethylcellulose (CMC)) was 47 % of control.
With O=C(NCCCCC(NC(=O)c1ccccc1)C(=O)NCCCCCCCCCCNC(=O)C(CCCCNC(=O)c1ccccc1)NC(=O)c1ccccc1)c1ccccc1 (centres undefined) the T/C [13] was 85 % of control, the T/C [14] was 93 % of control and the T/C [10] was 86 % of control. For the same compound, the T/C [11] was 90 % of control.
With C[C@]12C=CC(=O)C=C1CC[C@@H]1[C@@H]2CC[C@]2(C)OC(=O)CC[C@@H]12 the T/C (dose: 12.5 mg/kg/injection, schedule: Q01DX010 (sc), vehicle: steriod suspending solution) was 107 % of control and 112 % of control, the T/C [7] was 101 % of control and 77 % of control and the T/C [9] was 111 % of control and 115 % of control.

Source: PubChem BioAssay AID268 (DTP/NCI, 2004)
